# ChEMBL document CHEMBL1122202, “Ultra-short-acting beta-adrenergic receptor blocking agents. 1. (Aryloxy)propanolamines containing esters in the nitrogen substituent” (J Med Chem, 1982)
# Active and inactive are the calls of the source. The calls are words filed in the database; no cut-off is given here.
# Key:
# [1] = molecular target: T1, Beta-1 adrenergic receptor (Cavia porcellus, UniProt B0FL73); assay: In vitro ability to block beta-1 adrenergic receptor in guinea pig right atria.; settings: read-out: pA2 (converted)
# T1 sequence (B0FL73 whole entry): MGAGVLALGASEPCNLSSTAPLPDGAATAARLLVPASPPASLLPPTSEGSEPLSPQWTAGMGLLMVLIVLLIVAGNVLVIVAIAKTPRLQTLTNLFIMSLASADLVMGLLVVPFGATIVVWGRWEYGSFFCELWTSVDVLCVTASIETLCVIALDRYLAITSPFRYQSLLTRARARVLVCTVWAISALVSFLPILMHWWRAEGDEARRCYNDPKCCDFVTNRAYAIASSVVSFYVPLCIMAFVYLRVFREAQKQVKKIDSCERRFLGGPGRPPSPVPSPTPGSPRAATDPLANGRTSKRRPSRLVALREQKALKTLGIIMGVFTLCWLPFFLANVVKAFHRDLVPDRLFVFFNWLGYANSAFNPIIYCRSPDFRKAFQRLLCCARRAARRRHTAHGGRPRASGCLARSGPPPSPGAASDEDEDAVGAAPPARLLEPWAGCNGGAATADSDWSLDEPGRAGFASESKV
# [2] = molecular target: Beta-2 adrenergic receptor (Cavia porcellus, UniProt Q8K4Z4); assay: In vitro ability to block beta-2 adrenergic receptor in guinea pig trachea.; type: tissue-based; settings: read-out: pA2 (converted)
# Chain of Beta-2 adrenergic receptor (Q8K4Z4 whole entry): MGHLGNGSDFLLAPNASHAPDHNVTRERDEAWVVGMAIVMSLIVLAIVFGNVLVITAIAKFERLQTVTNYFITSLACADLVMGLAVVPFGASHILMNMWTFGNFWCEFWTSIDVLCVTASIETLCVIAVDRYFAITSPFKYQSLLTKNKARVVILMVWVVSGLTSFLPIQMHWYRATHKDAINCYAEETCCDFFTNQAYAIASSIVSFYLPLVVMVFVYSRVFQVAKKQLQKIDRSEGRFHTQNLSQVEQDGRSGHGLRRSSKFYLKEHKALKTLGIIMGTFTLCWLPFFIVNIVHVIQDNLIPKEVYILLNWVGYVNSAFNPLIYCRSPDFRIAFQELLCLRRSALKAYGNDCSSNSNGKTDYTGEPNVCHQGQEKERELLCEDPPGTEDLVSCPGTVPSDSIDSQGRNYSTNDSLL
# [3] = molecular target: Beta-1 adrenergic receptor (Cavia porcellus) (UniProt B0FL73); assay: The compound was tested in vitro for its ability to block Beta-1 adrenergic receptor in guinea pig right atria; Inactive at 10E-5 M
# Chain of Beta-1 adrenergic receptor (Cavia porcellus) (B0FL73 1-467): as the sequence (B0FL73 whole entry) above
# [4] = molecular target: Beta-2 adrenergic receptor (Cavia porcellus) (UniProt Q8K4Z4); assay: The compound was tested in vitro for its ability to block Beta-2 adrenergic receptor in guinea pig trachea; Inactive at 10E-5 M; type: tissue-based
# Chain of Beta-2 adrenergic receptor (Cavia porcellus) (UniProt Q8K4Z4) (Q8K4Z4 whole entry, looked up): as the sequence (Q8K4Z4 whole entry) above
# [5] = molecular target: Beta-1 adrenergic receptor (Cavia porcellus) (UniProt B0FL73); assay: In vivo inhibition of Beta-1 adrenergic receptor in guinea pig right atria after 40 min; type: functional, organism-based
# [6] = molecular target: Beta-1 adrenergic receptor (Cavia porcellus) (UniProt B0FL73); assay: The compound was tested in vivo for its ability to block Beta-1 adrenergic receptor in guinea pig right atria at a duration of 3h; type: functional, organism-based
# [7] = molecular target: Beta-1 adrenergic receptor (Cavia porcellus) (UniProt B0FL73)
# Description: The compound was tested in vivo for its ability to block Beta-1 adrenergic receptor in guinea pig right atria at a duration of 40 min
# [8] = molecular target: Beta-1 adrenergic receptor (Cavia porcellus) (UniProt B0FL73); assay: The compound was tested in vivo for its ability to block […] adrenergic receptor n guinea pig right atria at a duration of 3h; type: organism-based
# [9] = molecular target: T1, Beta-1 adrenergic receptor; assay: The compound was tested in vitro for its ability to block Beta-1 adrenergic receptor in guinea pig right atria; settings: read-out: pA2 (converted)
# [10] = Cardioselectivity expressed as antilog of pA2 (atria)-pA2 (trachea).
# [11] = molecular target: T1, Beta-1 adrenergic receptor; assay: The compound was tested in vitro for its ability to block Beta-1 adrenergic receptor n guinea pig trachea; type: tissue-based; settings: read-out: pA2 (converted)
# [12] = molecular target: Beta-2 adrenergic receptor (Cavia porcellus); assay: The compound was tested in vitro for its ability to block beta-2-adrenergic receptor in guinea pig trachea; settings: read-out: pA2 (converted)
SMILES,Kb [1],Kb [2],other results
CCOC(=O)c1ccc(NCC(O)COc2ccccc2C)cc1 (stereo not given),7940 nM,,
NC(=O)CNCC(O)COc1cccc2ccccc12 (stereo not given),631 nM,631 nM,
O=C1CCCN1CC(O)COc1ccccc1 (stereo not given),,,pA2 [3]: inactive; pA2 [4]: inactive
CCOC(=O)CCCNCC(O)COc1ccccc1C (stereo not given),,,In vivo duration [6]: > 60 min; In vivo duration [5]: 15 min
CCOC(=O)CCNCC(O)COc1ccccc1 (stereo not given),,,In vivo duration [7]: 29 min
CCOC(=O)CCNCC(O)COc1ccccc1Cl (stereo not given),,,In vivo duration [6]: > 60 min
O=C(CCNCC(O)COc1ccccc1)Oc1ccccc1 (stereo not given),,,In vivo duration [8]: > 60 min; Kb [9]: 398 nM
CCOC(=O)CCNCC(O)COc1cccc(Cl)c1 (stereo not given),,,In vivo duration [6]: > 60 min
CCOC(=O)c1ccc(CNCC(O)COc2ccccc2C)cc1 (stereo not given),251 nM,,Cardio selectivity [10]: 5; Kb [11]: 1260 nM
O=C(CCNCC(O)COc1ccccc1)Oc1ccc(F)cc1 (stereo not given),,,Kb [9]: 2000 nM
COc1ccc(CCOC(=O)CCNCC(O)COc2ccccc2)cc1OC (stereo not given),100 nM,,Kb [12]: 251 nM
CCOC(=O)c1cccc(NCC(O)COc2ccccc2C)c1 (stereo not given),6310 nM,,
CCOC(=O)CCNCC(O)COc1ccc(OC)cc1 (stereo not given),1580 nM,,
CCOC(=O)CCNCC(O)COc1ccc(Cl)cc1 (stereo not given),,,pA2 [3]: inactive
O=C1CCC(=O)N1CC(O)COc1ccccc1 (stereo not given),,,pA2 [3]: inactive
CC(C)CNCC(O)COc1cccc2ccccc12 (stereo not given),2 nM,1.26 nM,In vivo duration [6]: > 60 min; In vivo duration [5]: 46 min
O=C(CCNCC(O)COc1ccccc1)OCC(F)(F)F (stereo not given),2000 nM,,
NCC(O)COc1cccc2ccccc12 (stereo not given),316 nM,501 nM,
NCC(O)COc1ccccc1 (stereo not given),126 nM,1260 nM,Cardio selectivity [10]: 10
O=C(O)CNCC(O)COc1ccccc1 (stereo not given),,,pA2 [3]: inactive; pA2 [4]: inactive
CC(C)CNCC(O)COc1ccccc1 (stereo not given),10 nM,39.8 nM,Cardio selectivity [10]: 5
CCOC(=O)CNCC(O)COc1cccc2ccccc12 (stereo not given),,,In vivo duration [5]: 53 min

# Now from value to molecule, other results behind:
Kb [1],Kb [2],SMILES,other results
31.6 nM,,CCOC(=O)CCNCC(O)COc1ccccc1C (stereo not given),In vivo duration [5]: 14 min
2.51 nM,6.31 nM,Cc1ccccc1OCC(O)CNCC(C)C (stereo not given),
1260 nM,,CCOC(=O)C(NCC(O)COc1ccccc1C)C(=O)OCC (stereo not given),
15.8 nM,,CCOC(=O)CCCCNCC(O)COc1ccccc1C (stereo not given),In vivo duration [5]: 20 min
,1000 nM,CCOC(=O)CCNCC(O)COc1c(C)cccc1C (stereo not given),Kb [9]: 794 nM
398 nM,,CCOC(=O)CCNCC(O)COc1cccc(OC)c1 (stereo not given),
3.16 nM,7.94 nM,CCOC(=O)CC(C)(C)NCC(O)COc1ccccc1C (stereo not given),In vivo duration [6]: > 60 min
39.8 nM,50.1 nM,CCOC(=O)CCNCC(O)COc1cccc2ccccc12 (stereo not given),In vivo duration [5]: 17 min
3160 nM,2000 nM,COC(=O)CNCC(O)COc1ccccc1C (stereo not given),
200 nM,,CCOC(=O)CCNCC(O)COc1cccc(C)c1 (stereo not given),
31.6 nM,,COC(=O)CCNCC(O)COc1ccccc1C (stereo not given),
1260 nM,,CCOC(=O)CNCC(O)COc1ccccc1C (stereo not given),
,100 nM,COC(=O)CCNCC(O)COc1cccc2ccccc12 (stereo not given),
